# In PubChem BioAssay (NCI):
#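 Values below derive from 48-hour exposures of cells grown in 96-well plates, with endpoints linearly interpolated between the two concentrations bracketing the appropriate inhibition level. Abbreviation: GI50, concentration required for 50% inhibition of growth. TGI marks complete inhibition of growth.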
# Legend:
# Assay in all cases: growth of human tumour cells (NCI), 48 h
# MDA-MB-435 = system: MDA-MB-435
# SK-MEL-28 melanoma = system: SK-MEL-28 melanoma
# ACHN renal = system: ACHN renal
# BT-549 breast = system: BT-549 breast
# PC-3 prostate = system: PC-3 prostate
# K-562 leukemia = system: K-562 leukemia
# NCI-H23 lung = system: NCI-H23 lung
# A498 renal = system: A498 renal
# SNB-75 CNS = system: SNB-75 CNS
# DU-145 prostate = system: DU-145 prostate
# SK-MEL-2 melanoma = system: SK-MEL-2 melanoma
# SN12C renal = system: SN12C renal
# RPMI-8226 leukemia = system: RPMI-8226 leukemia
# CAKI-1 renal = system: CAKI-1 renal
# NCI-H226 lung = system: NCI-H226 lung
# SK-MEL-5 melanoma = system: SK-MEL-5 melanoma
# HCC-2998 colon = system: HCC-2998 colon
# NCI-H460 lung = system: NCI-H460 lung
# OVCAR-8 ovarian = system: OVCAR-8 ovarian
# HOP-62 NSCLC = system: HOP-62 NSCLC
# HT29 colon = system: HT29 colon
# NCI-H522 lung = system: NCI-H522 lung
# SW-620 colon = system: SW-620 colon
# MALME-3M melanoma = system: MALME-3M melanoma
# RXF 393 renal = system: RXF 393 renal
# SK-OV-3 ovarian = system: SK-OV-3 ovarian
# SF-295 CNS = system: SF-295 CNS
# COLO 205 colon = system: COLO 205 colon
compound,measurement,setting,value
COc1cc(-c2csc(NC(=O)Nc3ccc(Cl)c(C(F)(F)F)c3)n2)cc(OC)c1OC,GI50,MDA-MB-435,1810 nM
same,TGI,MDA-MB-435,4840 nM
same,GI50,SK-MEL-28 melanoma,2600 nM
same,TGI,SK-MEL-28 melanoma,11300 nM
same,GI50,ACHN renal,1270 nM
same,TGI,ACHN renal,3570 nM
same,GI50,BT-549 breast,1940 nM
same,TGI,BT-549 breast,5550 nM
same,GI50,PC-3 prostate,494 nM
same,TGI,PC-3 prostate,3360 nM
same,GI50,K-562 leukemia,1160 nM
same,TGI,K-562 leukemia,11300 nM
same,GI50,NCI-H23 lung,1470 nM
same,TGI,NCI-H23 lung,6060 nM
same,GI50,A498 renal,260 nM
same,TGI,A498 renal,1710 nM
same,GI50,SNB-75 CNS,1210 nM
same,TGI,SNB-75 CNS,3170 nM
same,GI50,DU-145 prostate,1790 nM
same,TGI,DU-145 prostate,6670 nM
same,GI50,SK-MEL-2 melanoma,1800 nM
same,TGI,SK-MEL-2 melanoma,4570 nM
same,GI50,SN12C renal,1760 nM
same,TGI,SN12C renal,6600 nM
same,GI50,RPMI-8226 leukemia,573 nM
same,TGI,RPMI-8226 leukemia,4100 nM
same,GI50,CAKI-1 renal,1370 nM
same,TGI,CAKI-1 renal,3620 nM
same,GI50,NCI-H226 lung,1740 nM
same,TGI,NCI-H226 lung,6030 nM
same,GI50,SK-MEL-5 melanoma,1180 nM
same,TGI,SK-MEL-5 melanoma,2440 nM
same,GI50,HCC-2998 colon,2950 nM
same,TGI,HCC-2998 colon,10600 nM
same,GI50,NCI-H460 lung,1370 nM
same,TGI,NCI-H460 lung,3500 nM
same,GI50,OVCAR-8 ovarian,1380 nM
same,TGI,OVCAR-8 ovarian,3660 nM
same,GI50,HOP-62 NSCLC,1700 nM
same,TGI,HOP-62 NSCLC,4570 nM
same,GI50,HT29 colon,1800 nM
same,TGI,HT29 colon,4680 nM
same,GI50,NCI-H522 lung,1100 nM
same,TGI,NCI-H522 lung,3570 nM
same,GI50,SW-620 colon,2060 nM
same,TGI,SW-620 colon,10500 nM
same,GI50,MALME-3M melanoma,1970 nM
same,TGI,MALME-3M melanoma,5570 nM
same,GI50,RXF 393 renal,1600 nM
same,TGI,RXF 393 renal,3900 nM
same,GI50,SK-OV-3 ovarian,1980 nM
same,TGI,SK-OV-3 ovarian,4550 nM
same,GI50,SF-295 CNS,1130 nM
same,TGI,SF-295 CNS,2640 nM
same,GI50,COLO 205 colon,1650 nM
same,TGI,COLO 205 colon,3460 nM
